The values below are quoted from earlier work in patent US20250303004A1, “RADIOPHARMACEUTICAL COMPOSITIONS FOR LOW TOXICITY ACTINIUM IN TARGETED RADIONUCLIDE THERAPY” (Curium US LLC, priority 2021, published 2025).

One data set deals with kidneys. Particulars: in vivo; cited from earlier work.
For another data set, the system named is patient. As to conditions: cited from earlier work.
A further data set has as its system patients with mCRPC. Particulars: cited from earlier work; for Biochemical response PSA50 (PSA decline of more than 50%): 40 patients (38 evaluated).
[1] abbreviates: 3 cycles of mean 8.4 MBq, PSA 39.7 ng/ml at first cycle.
Where [2] appears, read: Kratochwil 2018, 40 patients, 100 kBq/kg per cycle.

Each structure is given as a SMILES string. Like-named read-outs stand apart in the source and are kept apart here.

On to `O=C(O)CC[C@H](NC(=O)N[C@@H](CCCCNC(=O)[C@H](Cc1ccc2ccccc2c1)NC(=O)[C@H]1CC[C@H](CNC(=O)CN2CCN(CC(=O)O)CCN(CC(=O)O)CCN(CC(=O)O)CC2)CC1)C(=O)O)C(=O)O` [^225Ac-PSMA-617, metal not drawn], for which, in the data set on kidneys, the kidney function result is given as “deteriorated” and the route of excretion result is “predominantly renal excretion”. In the data set with patient (setting [1]), the “PSA level at second cycle” value is 7.7 ng/mL and the “PSA level at third cycle” value was 0.32 ng/mL. The xerostomia result with patient (3 cycles of mean 8.4 MBq) is reported as “chronic xerostomia”. Further, the creatinine in the data set on patient (January 2019, increased from 1.3 in October 2015) was 3.3 mg/dL. In addition, in the data set with patients with mCRPC (40 patients, 100 kBq/kg), the “median duration of tumor control” value is 9 months, the median overall survival result is “more than 12 months” and the “progression free survival (median)” value is listed as 7.0 months. Moreover, the “Biochemical response PSA50 (PSA decline of more than 50%)” value in the data set on patients with mCRPC (Kratochwil 2018, 100 kBq/kg per cycle) was 63%. Moreover, the “Biochemical response PSA50 (PSA decline of more than 50%)” value with patients with mCRPC (Kratochwil 2018, 100 kBq/kg per cycle, listed as PSMA-617) is recorded as 63%. In the data set with patients with mCRPC (setting [2]), the Major toxicity result is “xerostomia” and the OS entry was “na/>12 mo”. Besides, the “patients demonstrating any PSA response” value in the data set on patients with mCRPC (of 38 patients surviving at least 8 weeks) is listed as 87%.
